Assays:
Bcr/Abl fusion protein = Bcr/Abl fusion protein (Homo sapiens, UniProt P00519); test: Inhibition of Bcr-Abl (unknown origin)
OCI-Ly10 = test: Antiproliferative activity against human OCI-Ly10 cells assessed as cell viability measured after 72 hrs incubation by CellTiter-based growth inhibition assay; conditions: OCI-Ly10, 72 h
[1] = biological target: ATP-dependent Clp protease proteolytic subunit, mitochondrial (Homo sapiens, UniProt Q16740); test: Activation of human ClpP extracted from Escherichia coli using Ac-WLA-AMC as substrate assessed as fluorescence signal measured after 10 mins incubation
Sequence of ATP-dependent Clp protease proteolytic subunit, mitochondrial (Q16740 whole entry): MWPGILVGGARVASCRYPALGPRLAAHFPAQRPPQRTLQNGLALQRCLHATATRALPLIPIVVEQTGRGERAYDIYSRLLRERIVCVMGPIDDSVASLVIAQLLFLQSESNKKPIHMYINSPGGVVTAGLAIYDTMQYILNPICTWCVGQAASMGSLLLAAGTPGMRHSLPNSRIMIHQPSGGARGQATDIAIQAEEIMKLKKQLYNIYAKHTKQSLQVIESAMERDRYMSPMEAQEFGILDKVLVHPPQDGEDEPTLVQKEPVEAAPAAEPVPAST

[2] = biological target: Voltage-gated inwardly rectifying potassium channel KCNH2 (Homo sapiens, UniProt Q12809)
Sequence of Voltage-gated inwardly rectifying potassium channel KCNH2 (Q12809 whole entry): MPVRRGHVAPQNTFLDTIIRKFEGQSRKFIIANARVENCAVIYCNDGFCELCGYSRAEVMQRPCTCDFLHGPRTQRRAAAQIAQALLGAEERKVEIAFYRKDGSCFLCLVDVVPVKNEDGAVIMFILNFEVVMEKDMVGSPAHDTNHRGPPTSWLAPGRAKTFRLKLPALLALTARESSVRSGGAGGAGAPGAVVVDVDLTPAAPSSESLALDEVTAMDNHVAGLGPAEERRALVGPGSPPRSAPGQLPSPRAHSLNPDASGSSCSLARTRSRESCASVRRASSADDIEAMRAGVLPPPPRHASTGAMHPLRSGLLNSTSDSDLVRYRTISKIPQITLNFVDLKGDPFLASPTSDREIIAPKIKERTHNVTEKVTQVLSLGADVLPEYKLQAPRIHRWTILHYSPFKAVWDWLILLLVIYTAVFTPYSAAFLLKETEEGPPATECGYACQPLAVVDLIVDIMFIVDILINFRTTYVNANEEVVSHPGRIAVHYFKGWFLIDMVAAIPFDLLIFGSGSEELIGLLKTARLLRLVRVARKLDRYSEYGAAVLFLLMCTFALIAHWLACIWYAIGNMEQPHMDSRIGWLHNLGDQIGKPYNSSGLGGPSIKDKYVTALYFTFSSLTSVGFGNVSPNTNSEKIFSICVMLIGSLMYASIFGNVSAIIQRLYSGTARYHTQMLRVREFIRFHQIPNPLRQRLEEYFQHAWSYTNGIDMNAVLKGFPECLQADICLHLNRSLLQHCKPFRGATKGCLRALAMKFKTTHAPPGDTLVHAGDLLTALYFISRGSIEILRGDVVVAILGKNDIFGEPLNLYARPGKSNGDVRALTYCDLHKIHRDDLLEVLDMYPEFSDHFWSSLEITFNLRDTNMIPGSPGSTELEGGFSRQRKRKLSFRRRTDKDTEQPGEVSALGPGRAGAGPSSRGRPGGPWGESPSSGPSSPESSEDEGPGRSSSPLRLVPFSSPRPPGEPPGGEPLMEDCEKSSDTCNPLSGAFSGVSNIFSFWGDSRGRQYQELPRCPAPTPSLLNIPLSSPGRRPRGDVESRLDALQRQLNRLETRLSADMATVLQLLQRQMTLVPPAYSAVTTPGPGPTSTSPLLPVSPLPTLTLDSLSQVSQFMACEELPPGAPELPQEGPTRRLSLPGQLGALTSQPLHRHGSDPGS

[3] = Half life in ICR mouse at 15 mg/kg, po measured upto 24 hrs by LC-MS/MS analysis; conditions: in vivo
in vivo [4] = conditions: ICR, mouse, po, 15 mg/kg
Description: AUC (0 to t) in ICR mouse at 15 mg/kg, po measured upto 24 hrs by LC-MS/MS analysis

[5] = MRT in ICR mouse at 15 mg/kg, po measured upto 24 hrs by LC-MS/MS analysis; conditions: in vivo
[6] = Metabolic stability in human liver microsomes assessed as half life
[7] = Metabolic stability in human liver microsomes assessed as intrinsic clearance
[8] = MRT in ICR mouse at 5 mg/kg, iv measured upto 24 hrs by LC-MS/MS analysis; conditions: in vivo
in vivo [9] = conditions: ICR, mouse, po, 15 mg/kg; remark: listed apart in the source
Description: Cmax in ICR mouse at 15 mg/kg, po measured upto 24 hrs by LC-MS/MS analysis

[10] = Half life in ICR mouse at 5 mg/kg, iv measured upto 24 hrs by LC-MS/MS analysis; conditions: in vivo
in vivo [11] = conditions: ICR, mouse, po, 15 mg/kg; remark: listed apart in the source
Description: Tmax in ICR mouse at 15 mg/kg, po measured upto 24 hrs by LC-MS/MS analysis

[12] = Clearance in ICR mouse at 5 mg/kg, iv measured upto 24 hrs by LC-MS/MS analysis; conditions: in vivo
in vivo [13] = conditions: ICR, mouse, po, 15 mg/kg; remark: listed apart in the source
Description: Oral bioavailability in ICR mouse at 15 mg/kg measured upto 24 hrs by LC-MS/MS analysis

in vivo [14] = conditions: ICR, mouse, iv, 5 mg/kg
OCI-Ly3 = test: Antiproliferative activity against human OCI-Ly3 cells assessed as cell viability measured after 72 hrs incubation by CellTiter-based growth inhibition assay; conditions: OCI-Ly3, 72 h
[15] = Metabolic stability in rat liver microsomes assessed as hepatic clearance
in vivo [16] = conditions: ICR, mouse, po, 10 mg/kg
Description: Oral bioavailability in ICR mouse at 10 mg/kg measured upto 24 hrs by LC-MS/MS analysis

[17] = Metabolic stability in rat liver microsomes assessed as hepatic extraction
SUD4 = test: Antiproliferative activity against human SU-DHL-4 cells assessed as cell viability measured after 72 hrs incubation by CellTiter-based growth inhibition assay; conditions: SU-DHL-4, 72 h
[18] = AUCt in ICR mouse at 2 mg/kg, iv measured upto 24 hrs by LC-MS/MS analysis; conditions: in vivo
[19] = Metabolic stability in rat liver microsomes assessed as apparent intrinsic clearance
[20] = Half life in ICR mouse at 2 mg/kg, iv measured upto 24 hrs by LC-MS/MS analysis; conditions: in vivo
[21] = Volume of distribution at steady state in ICR mouse at 2 mg/kg measured upto 24 hrs by LC-MS/MS analysis; conditions: in vivo, iv
[22] = Half life in ICR mouse at 10 mg/kg, po measured upto 24 hrs by LC-MS/MS analysis; conditions: in vivo
[23] = Metabolic stability in human liver microsomes assessed as hepatic clearance
Toledo = test: Antiproliferative activity against human Toledo cells assessed as cell viability measured after 72 hrs incubation by CellTiter-based growth inhibition assay
[24] = Metabolic stability in rat liver microsomes assessed as intrinsic clearance
SU-DHL-2 = test: Antiproliferative activity against human SU-DHL-2 cells assessed as cell viability measured after 72 hrs incubation by CellTiter-based growth inhibition assay; conditions: SU-DHL-2, 72 h
SU-DHL-6 = test: Antiproliferative activity against human SU-DHL-6 cells assessed as cell viability measured after 72 hrs incubation by CellTiter-based growth inhibition assay; conditions: SU-DHL-6, 72 h
[25] = MRT in ICR mouse at 10 mg/kg, po measured upto 24 hrs by LC-MS/MS analysis; conditions: in vivo
[26] = Metabolic stability in human liver microsomes assessed as apparent intrinsic clearance
[27] = Clearance in ICR mouse at 2 mg/kg, iv measured upto 24 hrs by LC-MS/MS analysis; conditions: in vivo
in vivo [28] = conditions: ICR, mouse, po, 10 mg/kg; remark: listed apart in the source
Description: AUC (0 to t) in ICR mouse at 10 mg/kg, po measured upto 24 hrs by LC-MS/MS analysis

[29] = Metabolic stability in rat liver microsomes assessed as half life
in vivo [30] = conditions: ICR, mouse, po, 10 mg/kg; remark: listed apart in the source
Description: Cmax in ICR mouse at 10 mg/kg, po measured upto 24 hrs by LC-MS/MS analysis

[31] = MRT in ICR mouse at 2 mg/kg, iv measured upto 24 hrs by LC-MS/MS analysis; conditions: in vivo
[32] = Metabolic stability in human liver microsomes assessed as hepatic extraction
in vivo [33] = conditions: ICR, mouse, po, 10 mg/kg; remark: listed apart in the source
Description: Tmax in ICR mouse at 10 mg/kg, po measured upto 24 hrs by LC-MS/MS analysis

Sequence of Bcr/Abl fusion protein (P00519 whole entry, the tested form may be a part): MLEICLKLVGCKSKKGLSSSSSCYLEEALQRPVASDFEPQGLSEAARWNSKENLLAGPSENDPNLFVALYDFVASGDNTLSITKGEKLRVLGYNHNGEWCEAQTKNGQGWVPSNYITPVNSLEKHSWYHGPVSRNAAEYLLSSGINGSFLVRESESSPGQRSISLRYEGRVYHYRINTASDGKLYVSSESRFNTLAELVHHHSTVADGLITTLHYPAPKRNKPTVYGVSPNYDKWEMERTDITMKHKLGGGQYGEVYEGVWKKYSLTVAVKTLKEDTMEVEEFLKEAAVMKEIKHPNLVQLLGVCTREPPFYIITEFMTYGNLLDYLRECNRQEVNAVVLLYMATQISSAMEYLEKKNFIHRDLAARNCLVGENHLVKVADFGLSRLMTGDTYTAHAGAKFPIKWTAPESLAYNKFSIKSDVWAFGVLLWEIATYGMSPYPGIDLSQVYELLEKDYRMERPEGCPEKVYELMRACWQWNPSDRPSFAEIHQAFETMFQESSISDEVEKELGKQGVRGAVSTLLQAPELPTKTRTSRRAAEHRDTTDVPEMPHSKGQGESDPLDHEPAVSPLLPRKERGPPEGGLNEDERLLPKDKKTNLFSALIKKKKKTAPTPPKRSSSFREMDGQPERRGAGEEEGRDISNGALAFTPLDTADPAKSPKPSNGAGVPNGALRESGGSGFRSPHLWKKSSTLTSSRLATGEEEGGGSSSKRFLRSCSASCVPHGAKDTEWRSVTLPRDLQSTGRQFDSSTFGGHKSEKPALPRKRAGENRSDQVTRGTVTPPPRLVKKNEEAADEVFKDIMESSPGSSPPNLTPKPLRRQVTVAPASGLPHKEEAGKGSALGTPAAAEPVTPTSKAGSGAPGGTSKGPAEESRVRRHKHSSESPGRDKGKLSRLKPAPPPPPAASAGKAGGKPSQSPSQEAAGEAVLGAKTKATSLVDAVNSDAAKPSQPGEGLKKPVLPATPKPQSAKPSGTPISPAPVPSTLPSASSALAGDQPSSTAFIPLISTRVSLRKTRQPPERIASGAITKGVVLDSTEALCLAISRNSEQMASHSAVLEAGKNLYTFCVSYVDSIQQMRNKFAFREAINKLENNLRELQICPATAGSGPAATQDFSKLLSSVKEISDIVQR
Sequence of Bcr/Abl fusion protein (P11274 whole entry, further chain, the tested form may be a part): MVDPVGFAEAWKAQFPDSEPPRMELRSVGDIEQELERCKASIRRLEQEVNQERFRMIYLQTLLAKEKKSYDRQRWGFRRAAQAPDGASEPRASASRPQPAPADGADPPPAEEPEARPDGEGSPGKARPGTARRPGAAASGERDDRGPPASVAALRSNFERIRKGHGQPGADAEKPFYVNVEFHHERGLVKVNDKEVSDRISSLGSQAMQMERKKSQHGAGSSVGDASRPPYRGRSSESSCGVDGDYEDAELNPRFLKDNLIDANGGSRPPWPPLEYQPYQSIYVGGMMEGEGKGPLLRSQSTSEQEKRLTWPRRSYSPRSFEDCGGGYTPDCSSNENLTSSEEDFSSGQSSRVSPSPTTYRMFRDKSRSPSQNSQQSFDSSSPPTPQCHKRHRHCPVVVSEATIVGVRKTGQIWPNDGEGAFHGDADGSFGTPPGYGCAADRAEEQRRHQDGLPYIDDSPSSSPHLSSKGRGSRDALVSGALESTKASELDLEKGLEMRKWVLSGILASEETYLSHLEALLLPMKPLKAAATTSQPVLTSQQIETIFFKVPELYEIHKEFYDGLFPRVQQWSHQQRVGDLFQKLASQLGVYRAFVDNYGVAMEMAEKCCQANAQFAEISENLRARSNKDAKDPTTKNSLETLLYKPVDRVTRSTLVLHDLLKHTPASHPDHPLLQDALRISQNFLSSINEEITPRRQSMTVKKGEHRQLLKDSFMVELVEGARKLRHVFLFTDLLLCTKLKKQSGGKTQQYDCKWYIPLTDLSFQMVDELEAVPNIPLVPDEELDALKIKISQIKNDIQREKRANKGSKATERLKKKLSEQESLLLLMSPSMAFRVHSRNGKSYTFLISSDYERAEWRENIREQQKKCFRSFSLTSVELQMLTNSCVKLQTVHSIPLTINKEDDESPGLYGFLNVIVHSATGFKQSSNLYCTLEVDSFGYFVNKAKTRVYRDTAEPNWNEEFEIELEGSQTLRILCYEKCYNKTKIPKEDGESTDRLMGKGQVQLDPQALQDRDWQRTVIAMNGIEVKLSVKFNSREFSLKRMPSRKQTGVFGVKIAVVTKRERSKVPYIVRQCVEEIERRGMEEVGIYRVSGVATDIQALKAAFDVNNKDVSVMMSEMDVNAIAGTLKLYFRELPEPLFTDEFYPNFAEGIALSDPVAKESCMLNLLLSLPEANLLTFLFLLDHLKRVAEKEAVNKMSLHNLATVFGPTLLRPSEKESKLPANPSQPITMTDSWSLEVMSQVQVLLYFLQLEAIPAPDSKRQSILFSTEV

## O=C(Nc1cccc(Nc2nccc(-c3cccnc3)n2)c1)c1ccccc1
Bcr/Abl fusion protein
  IC50: 200 nM

## C[C@@H]1Cc2nc(NCc3ccc(C(F)(F)F)cc3)[nH]c(=O)c2CN1Cc1cccc(F)c1
OCI-Ly10
  IC50: 153 nM
[1]
  EC50: 272 nM

## C[C@@H]1Cc2nc(NCc3ccc(C(F)(F)F)cc3)[nH]c(=O)c2CN1Cc1cccc2ccccc12
OCI-Ly10
  IC50: 8210 nM
[1]
  EC50: 761 nM

## Cc1ccc(CNc2nc3c(c(=O)[nH]2)CN(Cc2cccc(C#N)c2)[C@H](C)C3)cc1
OCI-Ly10
  IC50: 117 nM
[1]
  EC50: 26.9 nM

## C[C@@H]1Cc2nc(NCc3ccc(Br)cc3)[nH]c(=O)c2CN1Cc1cccc(C#N)c1
[2]
  IC50: 4910 nM

## C[C@@H]1Cc2nc(NCc3ccc(C(F)(F)F)cc3)[nH]c(=O)c2CN1Cc1ccccc1O
OCI-Ly10
  IC50: 1290 nM
[1]
  EC50: 846 nM

## Cc1ccccc1CN1C(=O)C2=C(CCN(Cc3ccccc3)C2)N2CCN=C12.Cl.Cl.O
[3]
  half-life at 24 h: 1.05 h
In vivo [4]
  AUC(0-t) at 24 h: 894 ng·h/mL
[5]
  MRT at 24 h: 1.46 h
[6]
  half-life: 9.3 h
[7]
  CLint scaled: 187 mL/min/kg
[8]
  MRT at 24 h: 0.86 h
In vivo [9]
  Cmax at 24 h: 566 ng/mL
[10]
  half-life at 24 h: 0.91 h
In vivo [11]
  Tmax at 24 h: 0.42 h
[12]
  clearance at 24 h: 42.7 mL/min/kg
In vivo [13]
  bioavailability at 24 h: 15.2%
In vivo [14]
  AUC(0-t) at 24 h: 1960 ng·h/mL

## C[C@@H]1Cc2nc(NCc3cccc4ccccc34)[nH]c(=O)c2CN1Cc1cccc(C#N)c1
OCI-Ly10
  IC50: 105 nM
[1]
  EC50: 67.9 nM

## C[C@@H]1Cc2nc(NCc3ccc(C(F)(F)F)cc3)[nH]c(=O)c2CN1Cc1ccccc1F
OCI-Ly10
  IC50: 3100 nM
[1]
  EC50: 1290 nM

## C[C@@H]1Cc2nc(NCc3ccc(C(F)(F)F)cc3)[nH]c(=O)c2CN1Cc1ccc(C#N)cc1
OCI-Ly10
  IC50: 6040 nM
[1]
  EC50: 1360 nM

## C[C@@H]1Cc2nc(NCc3ccc(C(F)(F)F)cc3)[nH]c(=O)c2CN1Cc1ccccc1
[1]
  EC50: 65.1 nM

## C[C@@H]1Cc2nc(NCc3ccccc3Br)[nH]c(=O)c2CN1Cc1cccc(C#N)c1
OCI-Ly10
  IC50: 119 nM
[1]
  EC50: 349 nM

## O=c1nc2n(c3c1CN(Cc1ccccc1)CC3)CCN2Cc1ccc(F)c(Br)c1
[2]
  IC50: 1520 nM

## C[C@@H]1Cc2nc(N3CCC(c4ccccc4)C3)[nH]c(=O)c2CN1Cc1cccc(C#N)c1 (stereo not given in full)
OCI-Ly10
  IC50: 5750 nM
[1]
  EC50: 707 nM

## O=C1C2=C(CCN(Cc3ccccc3)C2)N2CCN=C2N1Cc1ccc(C(F)(F)F)cc1
OCI-Ly3
  IC50: 148 nM
[15]
  CLhep predicted: 51.9 mL/min/kg
In vivo [16]
  bioavailability at 24 h: 43.7%
[6]
  half-life: 10.2 h
[17]
  hepatic extraction ratio: 0.941
SUD4
  IC50: 250 nM
[7]
  CLint scaled: 338 mL/min/kg
[18]
  AUC(0-t) at 24 h: 1530 ng·h/mL
[19]
  CLint scaled: 876 mL/min/kg
[20]
  half-life at 24 h: 2.01 h
[21]
  Vd at 24 h: 2.25 L/kg
[2]
  IC50: > 40000 nM
[22]
  half-life at 24 h: 3.75 h
[23]
  CLhep predicted: 19.7 mL/min/kg
Toledo
  IC50: > 250 nM
[24]
  CLint scaled: 487 mL/min/kg
SU-DHL-2
  IC50: 222 nM
SU-DHL-6
  IC50: 91.8 nM
[25]
  MRT at 24 h: 4.65 h
[26]
  CLint scaled: 396 mL/min/kg
[27]
  clearance at 24 h: 21.8 mL/min/kg
[1]
  EC50: 156 nM
In vivo [28]
  AUC(0-t) at 24 h: 3350 ng·h/mL
[29]
  half-life: 7.1 h
In vivo [30]
  Cmax at 24 h: 873 ng/mL
[31]
  MRT at 24 h: 1.72 h
[32]
  hepatic extraction ratio: 0.95
In vivo [33]
  Tmax at 24 h: 0.42 h

## C[C@@H]1Cc2nc(NCc3cccc(Br)c3)[nH]c(=O)c2CN1Cc1cccc(C#N)c1
OCI-Ly10
  IC50: 89.1 nM
[1]
  EC50: 44.8 nM

## O=c1nc(NCc2ccc(C(F)(F)F)cc2)[nH]c2c1CN(Cc1ccccc1)CC2
[1]
  EC50: 2410 nM
